Measurements from patent publication US20060269482A1 (priority 2005, published 2006).

How the values were obtained:
[1] = system: Rb phosphorylation in human PBMCs; assay: Rb phosphorylation in human PBMCs treated ex vivo; assay type: cell-based; settings: PMA stimulated, 0.2 to 2.0 μM, Western blot
Procedure: Approximately 10 mls of blood was collected from five healthy human volunteers into sodium heparin treated Vacutainer blood collection tubes by Employee Health Services. PBMCs were separated using the Lymphocyte Separation Medium (LSM) and protocol supplied by ICN Biomedicals Inc. (Costa Mesa, Calif.). Briefly whole blood was diluted 1:1 with cold HBSS (Hanks Balanced Salt Solution), layered onto the LSM and centrifuged. The band of mononuclear cells above the LSM was collected, transferred to a new tube and washed once with cold HBSS. Cells were resuspended in RPMI 1640, 10% HI-FBS, 2 mM L-glutamine and 0.01 mg/ml Gentamicin Reagent Solution (GIBCO/Invitrogen). […]
(§1) PBMCs were collected by transferring the cells, including attached cells and those in suspension, into 50 ml tubes. […] Samples were sonicated on ice for 30 seconds, clarified by centrifugation at 16,000×g for 10 minutes at 4° C. and protein concentrations determined using Non-Interfering Protein Assay Kit (Geno Technology Incorporated, Maplewood, Mo.). […] For Western blotting, total Rb was detected using antibody from Pharmingen (BD Bioscience, San Diego, Calif.) at a dilution of 1:2000. Lysates were analysed by Western blotting for Rb phosphorylation using polyclonal antibodies against phosphorylated serine 795, serine 780, threonine 821 and serine 807/811 in human Rb (FIG. 8). […]

[2] = system: Rb phosphorylation in rat PBMCs; assay: Rb phosphorylation in ex vivo PMA-stimulated rat PBMCs after a single oral dose; settings: single oral dose 80 mg/kg
Procedure: The dose selected was 80 mg/kg, determined to be an efficacious dose in this animal model. Tumor growth inhibition in the MTLn3 xenograft model after 2 to 3 weeks of oral dosing at 80 mg/kg once weekly averaged 90% with 2/10 complete regressions. COMPOUND A was dosed on day 10 post implantation of cells, at which time the tumors were 100-200 mm^3 in size. In this pharmacokinetic/pharmacodynamic experiment, plasma and tumors were collected at 1, 2, 6, 24 and 72 hours post dosing of a single oral dose of COMPOUND A. Tumors were removed and immediately snap frozen in liquid nitrogen and stored at −80° C. until drug concentration analysis. […] Concentrations of COMPOUND A in plasma and tumors were determined in the same three animals per time point. […] Peripheral blood mononuclear cells (PBMCs) were isolated, stimulated ex vivo with mitogen and analyzed by Western blot as described below. […]
as §1, with “1:2000.” for “1:2000. Lysates were analysed by Western blotting for Rb phosphorylation using polyclonal antibodies against phosphorylated serine 795, serine 780, threonine 821 and serine 807/811 in human Rb (FIG. 8).”

COc1ccc(F)c(F)c1C(=O)c1cnc(NC2CCN(S(C)(=O)=O)CC2)nc1N [COMPOUND A, [4-amino-2-(1-methanesulfonylpiperidin-4-ylamino)pyrimidin-5-yl]-(2,3-difluoro-6-methoxyphenyl)methanone]
Rb phosphorylation at the serine 807/811 site ([1]; human PBMCs of two donors): complete inhibition of phosphorylation
Rb phosphorylation at the threonine 821 site ([1]; human PBMCs, 24 hours incubation): not inhibited at any concentration
Total Rb levels in PBMCs ([2]; female Fischer rats): did not appear to decrease
Rb phosphorylation (serine 795) in ex vivo stimulated PBMCs ([2]; female Fischer rats, 2, 6 and up to 24 hours post treatment, Western blot): decrease in Rb phosphorylation
